Here are results for five compounds from US12679820B2, “Cocrystals, pharmaceutical compositions thereof, and methods of treatment involving same” (Servier Pharmaceuticals LLC, priority 2017, dated 2026).

Usually AUC(0-inf) stands for the area under the concentration-time curve extrapolated to infinity.

A short description of data set [1]: Pharmacokinetics of Compound 1 solid forms in plasma following single PO administration (IV bolus reference) in male Sprague Dawley rats. It counts as in vivo. The conditions noted are these: for AUC(0-inf) / bioavailability: male, rat; for AUC(0-inf) / bioavailability / AUCinf: plasma; for bioavailability: read-out: Absolute % F; for AUCinf: oral gavage 10 mg/kg (as free Compound 1); for AUCinf / Absolute % F: 10 mg/kg; for Absolute % F: oral gavage 10 mg/kg. Here is the method:
Study Design. Twelve (12) male Sprague Dawley rats (purchased from SLAC Laboratory Animal Co. LTD were randomized into four groups (3 animals per group). The animals were fasted overnight, the forms of Compound 1 shown in Table 24 were administered by oral gavage, and the animals were fed 4 hours post-dose. Each form of Compound 1 was administered as a suspension in water containing 0.5% microcrystalline cellulose and 0.1% Tween 80. The Dose Levels and Dose Concentrations shown in Table 24 are based on the corresponding amount of free Compound 1.
Blood Collection. Blood was serially collected from each animal 0.083 hr, 0.25 hr, 0.5 hr, 1 hr, 2 hr, 4 hr, 8 hr, 24 hr, 48 hr, and 72 hrs post-dose. For each collection, the animal was restrained manually, and approximately 150 μL of blood sample was collected via the tail vein into K2EDTA tubes. The blood samples were put on ice and centrifuged at 2000 g for 5 min to obtain plasma. Plasma samples were stored at approximately −70° C. until analysis.
To enable the calculation of oral bioavailability, Compound 1 was dissolved in a vehicle containing 10% N-Methyl-2-pyrrolidone (NMP), 10% Solutol HS 15, and 80% saline and administered at 1 mg/kg as intravenous (IV) bolus dose to a separate group of male Sprague-Dawley rats, and blood samples were collected at similar time points to those shown above. Further, plasma samples were obtained from the collected blood samples and stored at approximately −70° C. until analysis.
Further, the amorphous solid dispersion of Compound 1, as described in Example 23, was suspended in an aqueous vehicle containing 0.5% methyl cellulose (MC) and 0.2% Tween80 at 0.2 mg/mL concentration and dosed at 1 mg/kg as a single oral dose to a separate group of male Sprague-Dawley rats after an overnight fasting. Blood samples were collected at similar time points to those shown above. Further, plasma was harvested and stored at approximately −70° C. until analysis.
Sample Preparation and Analysis. The concentration of Compound 1 in the plasma samples was determined by LC-MS/MS analysis.
A 20 μL aliquot of each sample was diluted with 200 μL of acetonitrile containing dexamethasone as an internal standard (40 ng/mL). The resulting mixture was vortexed for 2 min and centrifuged at 5800 rpm for 10 min. A 2 μL sample was injected into LC-MS/MS.
Results. Historical data for IV administration of Compound 1 and administration of Compound 1 as a spray dried dispersion are also provided in Table 26. The absolute bioavailability of each form of Compound 1 was determined by dividing the AUCinf of the form in question by the AUCinf obtained by IV administration of Compound 1 and correcting for differences in dose. The measured absolute bioavailability of the citrate and maleate cocrystals, as reported in Table 26, was higher than the measured bioavailability of the other forms of Compound 1.

Data set [2] can be described thus: Hygroscopicity by Dynamic Vapor Sorption (DVS) analysis. It counts as physicochemical. The conditions noted are these: for water uptake at 80% relative humidity / hygroscopicity: DVS at 25° C.; for water uptake at 80% relative humidity: range 0-95% relative humidity; for form change after DVS analysis (XRPD of the remaining material): XRPD after DVS at 25° C., 0-95% relative humidity. Here is the method:
Dynamic Vapor Sorption (DVS) Analysis. DVS was measured via a SMS (Surface Measurement Systems) DVS Intrinsic. The relative humidity at 25° C. were calibrated against deliquescence point of LiCl, Mg(NO3)2 and KCl. [table] The hygroscopicity of the cocrystal was determined by DVS analysis at 25° C., over a range of 0-95% relative humidity. […]

The test system of the next data set is mutant IDH1. The conditions noted are these: biochemical and cellular assays; cited from earlier work.
The test system of another data set is mutant IDH2. The note with it: biochemical and cellular assays; cited from earlier work.
[3] abbreviates: listed as Citric Acid Cocrystal Type A.
Where [4] appears, read: male Sprague Dawley rats, fasted.
[5] abbreviates: male Sprague Dawley rats, vs IV AUCinf, dose-corrected.
Setting [6] is: listed as Maleic Acid Cocrystal Type A.

Like-named read-outs stand apart in the source and are kept apart here.

`C[C@@H](Nc1nc(N[C@H](C)C(F)(F)F)nc(-c2cccc(Cl)n2)n1)C(F)(F)F` [Citrate Cocrystal Type A] gave an AUC(0-inf) in data set [1] (Sprague Dawley, po, 11.7 mg/kg, oral gavage 11.7 mg/kg (as free Compound 1), male Sprague Dawley rats, fasted) of 58200 ng·h/mL. In data set [1] (Sprague Dawley, po, 11.7 mg/kg, oral gavage 11.7 mg/kg, male Sprague Dawley rats, vs IV AUCinf, dose-corrected), the bioavailability is 104%. Also, the “bioavailability (in words)” value in data set [1] (summary statement referring to the Examples) is “favorable bioavailability”. For the same compound, the “water uptake at 80% relative humidity” value in data set [2] (setting [3]) stood at 0.5%. In addition, the values for the hygroscopicity result in data set [2] (setting [3]) and in data set [2] (listed as citric acid cocrystal type A) were “slightly hygroscopic” and “low hygroscopicity”, respectively. In data set [2], the “form change after DVS analysis (XRPD of the remaining material)” value is “no form change had occurred”.
With `C[C@@H](Nc1nc(N[C@H](C)C(F)(F)F)nc(-c2cccc(Cl)n2)n1)C(F)(F)F` [Maleate Cocrystal Type A], in data set [1] (setting [4]), the AUCinf amounted to 38625 ng·h/mL. Also, in data set [1] (setting [5]), the “Absolute % F” value is listed as 80.4%. In data set [2] (setting [6]), the “water uptake at 80% relative humidity” value is recorded as 2.0% and the hygroscopicity result is “slightly hygroscopic”. Also, the “form change after DVS analysis (XRPD of the remaining material)” value in data set [2] is listed as “no form change had occurred”.
In data set [1] (setting [4]), `C[C@@H](Nc1nc(N[C@H](C)C(F)(F)F)nc(-c2cccc(Cl)n2)n1)C(F)(F)F` [Free Form C] yielded an AUCinf of 10846 ng·h/mL. Also, the “Absolute % F” value in data set [1] (setting [5]) is recorded as 22.6%.
In the same order, the values of `C[C@@H](Nc1nc(N[C@H](C)C(F)(F)F)nc(-c2cccc(Cl)n2)n1)C(F)(F)F` [Free Form A] are 30698 ng·h/mL and 63.9%.
`C[C@@H](Nc1nc(N[C@H](C)C(F)(F)F)nc(-c2cccc(Cl)n2)n1)C(F)(F)F` [Compound 1, 6-(6-chloropyridin-2-yl)-N^2,N^4-bis((R)-1,1,1-trifluoropropan-2-yl)-1,3,5-triazine-2,4-diamine] yielded an AUC(0-inf) in data set [1] (Sprague-Dawley, iv, 1 mg/kg, IV bolus 1 mg/kg, male Sprague-Dawley rats, historical data) of 4800 ng·h/mL. The bioavailability in data set [1] (Sprague-Dawley, iv, 1 mg/kg, IV bolus 1 mg/kg, male Sprague-Dawley rats, historical data (reference)) amounted to 100%. In addition, the “inhibitor of mutant IDH1 protein” value in the data set on mutant IDH1 was “inhibitor”. For the same compound, in the data set on mutant IDH2, the “inhibitor of mutant IDH2 protein” value was “inhibitor”.
